Laboratory results reported in patent US12594279B2, “Composition for preventing or treating TNF-α-related disease, comprising hydroflumethiazide as active ingredient” (SK CHEMICALS CO., LTD., priority 2020, dated 2026).
Counter-ions that a name gives are not always drawn.

Assays:
RAW 264.7 = assay: MTT assay cell viability; assay type: cell-based; settings: for Cytotoxicity (MTT assay): concentrations of Table 1
TNF-α = TNF-α expression level by ELISA in LPS-induced RAW 264.7 cells; assay type: cell-based; settings: for TNF-α: LPS 10 ng/ml-induced RAW 264.7, ELISA
Procedure: In addition, in order to confirm an effect of inhibiting the TNF-α expression of hydroflumethiazide in induced inflammatory cells, an experiment was performed as follows. RAW 264.7 cells were treated with DMSO at a concentration of 0.01% (v/v) as an untreated control group, and the cells were treated with LPS at a concentration of 10 ng/ml as a control group to induce an inflammatory response. […] Then, the expression level of TNF-α was measured and compared through the ELISA method in the groups treated with respective drugs.

[1] = test system: rheumatoid arthritis DBA-1J mouse model; assay: Arthritis index in collagen-induced rheumatoid arthritis DBA-1J mouse model; assay type: in vivo
Procedure: (§1) DBA-1J mice were purchased from Central Lab. Animal Inc. Bovine Type II collagen (2 mg/mL) was emulsified in 4 mg/mL of Complete Freund's adjuvant at 1:1, and then injected subcutaneously to the DBA-1J mice at the base of the tail with 100 μL/head to induce arthritis first. Then, after 3 weeks, Bovine Type II collagen (2 mg/mL) was emulsified in Incomplete Freund's adjuvant at 1:1 and injected subcutaneously to the DBA-1J mice at the base of the tail with 100 μL/head to prepare rheumatoid arthritis animal models.
(§2) As a normal control group, 0.5% methyl cellulose (MC) was orally administered to healthy DBA-1J mice, and as a comparative control group, 0.5% MC was orally administered to the prepared rheumatoid arthritis mouse models, daily for 2 weeks. Methotrexate (MTX, 2 mg/kg/2 day), hydroxychloroquine (HCQ, 80 mg/kg/day), which are commercially available therapeutic agents for rheumatoid arthritis, and hydroflumethiazide (5 mg/kg/day or 20 mg/kg/day) were orally administered daily for 2 weeks to the prepared rheumatoid arthritis mouse models, respectively.
[…] Reference: 0, No edema or swelling: 1, Mild edema and redness confined to the joint: 2, Mild edema and redness from the joint to carpal bone and tarsal bone: 3, Moderate edema and redness from the joint to carpal bone and tarsal bone: 4, Overall edema and redness and joint stiffness: 5. In the arthritis index, the highest score was set to 16 points by summing up the four limb scores. In addition, the size of the lower extremity edema was measured using a micrometer on day 14 after each drug was administered in each of the control groups and experimental groups.

[2] = test system: rheumatoid arthritis DBA-1J mouse model; assay: Size of lower extremity edema  in rheumatoid arthritis DBA-1J mouse model; assay type: in vivo; set-up: Size of lower extremity edema, Right Feet / Size of lower extremity edema, Left Feet: unit not given here
Procedure: as §1, §2
Arthritis indices were measured on day 9 and 14 after the administration of each drug in each of the control groups and experimental groups on the basis of the following criteria. Reference: 0, No edema or swelling: 1, Mild edema and redness confined to the joint: 2, Mild edema and redness from the joint to carpal bone and tarsal bone: 3, Moderate edema and redness from the joint to carpal bone and tarsal bone: 4, Overall edema and redness and joint stiffness: 5. In the arthritis index, the highest score was set to 16 points by summing up the four limb scores. […]

[3] = test system: rheumatoid arthritis DBA-1J mouse model; assay: Histopathological quantification of ankle regions (H&E, safranin-O) in rheumatoid arthritis DBA-1J mouse model; assay type: in vivo
Procedure: as §1, §2
On day 14 of administration, the mice in each of the control groups and experimental groups were sacrificed, and then joint staining photographs were taken through the following process. The ankle areas of the sacrificed mice were subjected to general tissue treatment processes such as demineralization, trimming, dehydration, paraffin embedding, and microtome cutting to prepare specimens for histopathological examination. Then, Hematoxylin & Eosin (H&E) and safranin-O stainings were performed, and histopathological changes were observed using an optical microscope (FIG. 5).
In addition, the degrees of synovium proliferation, bone destruction, and cartilage damage were quantified, and the results are shown in Table 5 below.

[4] = test system: rheumatoid arthritis DBA-1J mouse model; assay: as above; assay type: in vivo; settings: oral, FIG. 6
[5] = Mus musculus, RAW264.7, TNF-α, LPS-induced RAW 264.7, 20 uM

O=C(Nc1cc(Cl)cc2c1[nH]c1cnccc12)c1cccnc1 [PS1145, N-(6-chloro-9H-pyrido[3,4-b]indol-8-yl)-3-pyridinecarboxamide dihydrochloride]
Cytotoxicity (MTT assay) (RAW 264.7): cytotoxicity was not exhibited
Viability (RAW 264.7; treatment concentration 20 uM): 99.16%
TNF-α (TNF-α; 20 uM): 1402.08 pg/mL
inhibition at 20 µM (TNF-α; [5]): 24.3%

CCN(CCO)CCCC(C)Nc1ccnc2cc(Cl)ccc12 (stereo not drawn) [HCQ, hydroxychloroquine]
Arthritis index ([1]; Day 0, G4, 80 mg/kg/day oral): 2.3 ± 1.4
Arthritis index ([1]; Day 2, G4, 80 mg/kg/day oral): 4.7 ± 1.2
Arthritis index ([1]; Day 4, G4, 80 mg/kg/day oral): 6 ± 1.3
Arthritis index ([1]; Day 7, G4, 80 mg/kg/day oral): 7 ± 1.3
Arthritis index ([1]; Day 9, G4, 80 mg/kg/day oral): 7.5 ± 1.2
Arthritis index ([1]; Day 11, G4, 80 mg/kg/day oral): 7.8 ± 1.2
Arthritis index ([1]; Day 14, G4, 80 mg/kg/day oral): 8.5 ± 1.5
Size of lower extremity edema, Left Feet ([2]; Day 0, G4, 80 mg/kg/day oral): 0.12 ± 0.02
Size of lower extremity edema, Right Feet ([2]; Day 0, G4, 80 mg/kg/day oral): 0.11 ± 0.02
Size of lower extremity edema, Left Feet ([2]; Day 14, G4, 80 mg/kg/day oral): 0.16 ± 0.04
Size of lower extremity edema, Right Feet ([2]; Day 14, G4, 80 mg/kg/day oral): 0.15 ± 0.03
Bone destruction ([3]; day 14, G4, 80 mg/kg/day oral): 2.3 ± 0.5
Cartilage damage ([3]; day 14, G4, 80 mg/kg/day oral): 2 ± 0.6
Synovium proliferation ([3]; day 14, G4, 80 mg/kg/day oral): 3 ± 0.0
Total (synovium proliferation, cartilage damage, bone destruction) ([3]; day 14, G4, 80 mg/kg/day oral): 7.3 ± 1.0

NS(=O)(=O)c1cc2c(cc1C(F)(F)F)NCNS2(=O)=O [Hydroflumethiazide, hydroflumethiazide]
Cytotoxicity (MTT assay) (RAW 264.7): cytotoxicity was not exhibited
Viability (RAW 264.7; treatment concentration 0.1 uM): 106.35%
Viability (RAW 264.7; treatment concentration 1 uM): 101.82%
Viability (RAW 264.7; treatment concentration 10 uM): 105.73%
Viability (RAW 264.7; treatment concentration 20 uM): 101.11%
TNF-α (TNF-α; 0.1 uM): 1466.48 pg/mL
TNF-α (TNF-α; 1 uM): 1289.62 pg/mL
TNF-α (TNF-α; 10 uM): 837.44 pg/mL
TNF-α (TNF-α; 20 uM): 625.65 pg/mL
inhibition at 0.1 µM (TNF-α; Mus musculus, RAW264.7, TNF-α, LPS-induced RAW 264.7, 0.1 uM): 20.8%
inhibition at 1 µM (TNF-α; Mus musculus, RAW264.7, TNF-α, LPS-induced RAW 264.7, 1 uM): 30.4%
inhibition at 10 µM (TNF-α; Mus musculus, RAW264.7, TNF-α, LPS-induced RAW 264.7, 10 uM): 54.8%
inhibition at 20 µM (TNF-α; [5]): 66.2%
Decrease of expression level of TNF-α (TNF-α; inflammatory response-induced RAW 264.7, at least 0.1 μM): at least 20%
Expression level of TNF-α compared to the group treated with PS1145 (TNF-α; inflammatory response-induced RAW 264.7, at least 1 μM): further decreased compared to the group treated with PS1145
Decrease of expression of TNF-α (TNF-α; inflammatory response-induced RAW 264.7, at least 10 μM): at least 50%
Arthritis index compared to the MTX-administered group ([1]; 20 mg/kg/day, day 14): decreased at a similar level to the MTX-administered group
Arthritis index ([1]; Day 0, G5, 5 mg/kg/day oral): 2.3 ± 1
Arthritis index ([1]; Day 0, G6, 20 mg/kg/day oral): 2.3 ± 1
Arthritis index ([1]; Day 2, G5, 5 mg/kg/day oral): 4.2 ± 1.6
Arthritis index ([1]; Day 2, G6, 20 mg/kg/day oral): 4 ± 1.7
Arthritis index ([1]; Day 4, G5, 5 mg/kg/day oral): 5.8 ± 1.8
Arthritis index ([1]; Day 4, G6, 20 mg/kg/day oral): 5 ± 1.4
Arthritis index ([1]; Day 7, G5, 5 mg/kg/day oral): 6 ± 2.1
Arthritis index ([1]; Day 7, G6, 20 mg/kg/day oral): 5.7 ± 1.5
Arthritis index ([1]; Day 9, G5, 5 mg/kg/day oral): 6.7 ± 2.0
Arthritis index ([1]; Day 9, G6, 20 mg/kg/day oral): 6.2 ± 1.7
Arthritis index ([1]; Day 11, G5, 5 mg/kg/day oral): 7.2 ± 1.7
Arthritis index ([1]; Day 11, G6, 20 mg/kg/day oral): 6.8 ± 1.6
Arthritis index ([1]; Day 14, G5, 5 mg/kg/day oral): 8 ± 2.5
Arthritis index ([1]; Day 14, G6, 20 mg/kg/day oral): 7.3 ± 2.3
Arthritis index compared to the HCQ-administered group ([1]; from day 9 of the administration): significantly decreased
Size of the lower extremity edema compared to the MTX-administered group ([2]; 20 mg/kg/day, day 14): decreased at a similar level to the MTX-administered group
Size of lower extremity edema, Left Feet ([2]; Day 0, G5, 5 mg/kg/day oral): 0.09 ± 0.01
Size of lower extremity edema, Right Feet ([2]; Day 0, G5, 5 mg/kg/day oral): 0.11 ± 0.03
Size of lower extremity edema, Left Feet ([2]; Day 0, G6, 20 mg/kg/day oral): 0.11 ± 0.03
Size of lower extremity edema, Right Feet ([2]; Day 0, G6, 20 mg/kg/day oral): 0.1 ± 0.01
Size of lower extremity edema, Left Feet ([2]; Day 14, G5, 5 mg/kg/day oral): 0.14 ± 0.02
Size of lower extremity edema, Right Feet ([2]; Day 14, G5, 5 mg/kg/day oral): 0.15 ± 0.04
Size of lower extremity edema, Left Feet ([2]; Day 14, G6, 20 mg/kg/day oral): 0.15 ± 0.03
Size of lower extremity edema, Right Feet ([2]; Day 14, G6, 20 mg/kg/day oral): 0.15 ± 0.03
Bone destruction ([3]; day 14, G5, 5 mg/kg/day oral): 1.8 ± 1.0
Cartilage damage ([3]; day 14, G5, 5 mg/kg/day oral): 2 ± 0.9
Synovium proliferation ([3]; day 14, G5, 5 mg/kg/day oral): 3 ± 0.0
Total (synovium proliferation, cartilage damage, bone destruction) ([3]; day 14, G5, 5 mg/kg/day oral): 6.8 ± 1.8
Bone destruction ([3]; day 14, G6, 20 mg/kg/day oral): 2.5 ± 0.5 ^
Cartilage damage ([3]; day 14, G6, 20 mg/kg/day oral): 1.7 ± 0.8
Synovium proliferation ([3]; day 14, G6, 20 mg/kg/day oral): 2.2 ± 1.2
Total (synovium proliferation, cartilage damage, bone destruction) ([3]; day 14, G6, 20 mg/kg/day oral): 6.3 ± 1.5
Anti-arthritic effect compared to HCQ [4]: superior to HCQ

CN(Cc1cnc2nc(N)nc(N)c2n1)c1ccc(C(=O)N[C@@H](CCC(=O)O)C(=O)O)cc1 [MTX, Methotrexate]
Arthritis index ([1]; Day 0, G3, 2 mg/kg/2 day oral): 2.3 ± 1.6
Arthritis index ([1]; Day 2, G3, 2 mg/kg/2 day oral): 4.2 ± 1.0
Arthritis index ([1]; Day 4, G3, 2 mg/kg/2 day oral): 5 ± 1.3
Arthritis index ([1]; Day 7, G3, 2 mg/kg/2 day oral): 5.8 ± 1.3
Arthritis index ([1]; Day 9, G3, 2 mg/kg/2 day oral): 6.3 ± 1.4
Arthritis index ([1]; Day 11, G3, 2 mg/kg/2 day oral): 6.7 ± 1.5
Arthritis index ([1]; Day 14, G3, 2 mg/kg/2 day oral): 7 ± 1.3
Size of lower extremity edema, Left Feet ([2]; Day 0, G3, 2 mg/kg/2 day oral): 0.11 ± 0.02
Size of lower extremity edema, Right Feet ([2]; Day 0, G3, 2 mg/kg/2 day oral): 0.1 ± 0.02
Size of lower extremity edema, Left Feet ([2]; Day 14, G3, 2 mg/kg/2 day oral): 0.12 ± 0.02
Size of lower extremity edema, Right Feet ([2]; Day 14, G3, 2 mg/kg/2 day oral): 0.15 ± 0.03
Bone destruction ([3]; day 14, G3, 2 mg/kg/2 day oral): 1.5 ± 0.8
Cartilage damage ([3]; day 14, G3, 2 mg/kg/2 day oral): 1.3 ± 0.5
Synovium proliferation ([3]; day 14, G3, 2 mg/kg/2 day oral): 2.5 ± 0.5
Total (synovium proliferation, cartilage damage, bone destruction) ([3]; day 14, G3, 2 mg/kg/2 day oral): 5.3 ± 1.5
